Experiments:
Nosema ceranae = assay: Nosema infection of bees fed ergosterol-containing diet; assay type: in vivo; settings: diet supplemented with ergosterol, FIG. 5
Source text: Method: Newly emerged adult worker honey bees (Apis mellifera) or adult worker bumble bees (Bombus terrestris) were reared in an assay to test whether diet induced an increase in Nosema ceranae infection. Bees had access to a diet composed of 15% protein, 6% fat, 78% carbohydrates and 1% vitamins and minerals and adlibitum access to water and sucrose solution. One treatment diet contained the ergosterol and the other contained no sterol. Newly emerged bees were removed from the brood frame and cohorts of 30 bees per replicate were housed in plastic rearing cages. In all experiments, 10 cohorts of ˜30 bees each were used for each treatment group. Consumption of each diet was measured every 24 h for 14 days.
Nosema ceranae infection of each cohort was produced as in Tischler et al. (2017). Briefly, Nosema spores were collected in 10 bees, concentrated and cultured. Cultures were added to 30% sucrose solutions and fed to the bees.

adult worker honey bees = assay: Survival of bee cohorts on diets containing ergosterol; assay type: in vivo, Apis mellifera; settings: bees fed diets containing ergosterol, FIG. 2
Source text: Example 2: Survival: Bees are Less Likely to Survive on Diets Containing Ergosterol Method: Newly emerged adult worker honey bees fed with a diet treatment and ad libitum access to water. The treatment diet contained the ergosterol. Newly-emerged bees were removed from the brood frame and cohorts of 30 bees per replicate were housed in plastic rearing cages. In all experiments, 10 cohorts of ˜30 bees each were used for each treatment group. In all diets carbohydrate was maintained at 60% using powdered sugar and fat was maintained at 8% using an emulsion. Consumption of each diet was measured every day over the course of the experiment. The number of bees alive in the box was counted each day for 14 days.

bee gut = assay: Passage of dietary ergosterol across the bee gut; assay type: in vivo; settings: ergosterol in bee diet
[1] = tested on: adult worker honey bees (Apis mellifera) or adult worker bumble bees (Bombus terrestris); assay: Two-choice preference assay: diet with ergosterol vs diet with no sterol; assay type: in vivo; settings: feed containing ergosterol vs food without it, FIG. 1
Method: Example 1. Preference Assay: Bees Avoid Ergosterol in Foods Method: Newly emerged adult worker honey bees (Apis mellifera) or adult worker bumble bees (Bombus terrestris) were tested in a two-choice preference assay in which bees had access to two diets and adlibitum access to water. One treatment diet contained the ergosterol and the other contained no sterol. Newly emerged bees were removed from the brood frame and cohorts of 30 bees per replicate were housed in plastic rearing cages. In all experiments, 10 cohorts of ˜30 bees each were used for each treatment group. In all diets carbohydrate was maintained at 60% using powdered sugar and fat was maintained at 8% using an emulsion. Consumption of each diet was measured every 24 h for 5 days. Preference index was calculated as (amount of treatment consumed-amount of control consumed)/(total amount of food consumed).

honey bees = assay: Brood production of honey bee colonies on diets with ergosterol; assay type: in vivo, Apis mellifera; settings: bee food with ergosterol vs without, FIGS. 3 and 4
Method: Example 3 and 4. Brood Production: Honey Bees Cannot Produce Brood on Diets with high quantities of ergosterol Method: Fully functional insulated styrofoam […] nucs comprised 5 mini frames populated with adult workers and 1 mated laying queen bee were populated with 300-400 ml of young adult workers ( N<1,000 bees of mixed ages). […] Each treatment was tested with 3-6 colonies; each colony was fed with a 60-100 g patty (solid diet) on the top feeder fitted with a mesh floor. Diet was fed on the first day and again on day 6; the quantity consumed was measured on day 6 and day 15. If no larvae or eggs/queen are observed by day 6 then the experiment is terminated. The number of capped brood cells was counted every 15 days. The number of bee seams was estimated during each inspection. Sugar syrup (34%) and water was provided in feeders inside the tent to prevent carbohydrate starvation and to stimulate foraging activity.

## CC(C)[C@@H](C)/C=C/[C@@H](C)[C@H]1CC[C@H]2C3=CC=C4C[C@@H](O)CC[C@]4(C)[C@H]3CC[C@]12C [ergosterol]
Nosema ceranae
  Nosema population in the gut: increases the Nosema population in the gut
Nosema ceranae; bees inoculated with Nosema ceranae
  Mortality: higher mortality
Adult worker honey bees
  Lifespan: shorter lifespans
Bee gut
  Crossing of the bee gut: does not cross the bee gut
[1]
  Diet preference: bees actively avoid feed containing ergosterol
Honey bees
  Brood production: less brood

From patent US20240397979A1, “METHODS FOR DELIVERING BENEFICIAL NUTRIENTS TO INVERTEBRATES THROUGH A MICROORGANISM DEFICIENT IN ANTINUTRIENTS” (APIX BIOSCIENCES, priority 2021, published 2024)
